# Test results published in patent US6892140B1, “Immunogenic cancer peptides and uses thereof” (Enteron, Inc., priority 2000, dated 2005).
# Ends that are not written are not given here.
# Test system: antibodies in sera from prostate cancer patients
# Test: Prostate cancer serum test of cell surface protein peptides (Table 3)
# Type: binding, human
# Design: key: +: positive or negative reactivity between peptides representing modified peptide regions of cancer cell surface protein molecules with antibodies in sera from prostate cancer patients; −: positive or negative reactivity between peptides representing modified peptide regions of cancer cell surface protein molecules with antibodies in sera from prostate cancer patients
# Settings: reactivity of peptide with antibodies in sera from prostate cancer patients
# Excerpt: Table 3 third column illustrates the positive or negative reactivity between peptides representing modified peptide regions of cancer cell surface protein molecules with antibodies in sera from prostate cancer patients. The presence or absence in prostate cancer cells of the 41 tested molecules is shown as + or − in column four.
# Sixth, employing the immunoassays disclosed herein, each biotinylated peptide is screened as an antigen against sera or other relevant biological fluids containing antibodies taken from one of the following groups: cancer patients, patients with benign lesions or inflammatory conditions, and healthy subjects. Peptides can also be screened using tumor-infiltrating lymphocytes or peripheral blood-born lymphocytes from cancer patients. Candidate peptides we consider cancer-specific or cancer-associated depend on whether they fit the following definitions.
row,Substance,Prostate Cancer Serum Test Result
1,nkNvt: Tested peptide of cell surface protein integrin beta I (NKNVT; also: biotin label at one end),+
2,skNfs: Tested peptide of cell surface protein integrin beta 3 (SKNFS; not fully specified),−
3,"qdNkt: Tested peptide of cell surface protein integrin alpha (v) (QDNKT; also: biotin label at one end, end not given here)",+
4,vtNrs: Tested peptide of cell surface protein integrin beta I (VTNRS; not fully specified),−
5,"qkNqt: Tested peptide of cell surface protein integrin alpha 9 (QKNQT; also: biotin label at one end, end not given here)",−
6,"perNrt: Tested peptide of cell surface protein erbB-1 (PERNRT; also: biotin label at one end, end not given here)",−
7,skNqs: Tested peptide of cell surface protein CD66 (SKNQS; not fully specified),−
8,evNss: Tested peptide of cell surface protein integrin beta 6 (EVNSS; not fully specified),−
9,mNtt: Tested peptide of cell surface protein insulin-like gf receptor,−
10,teNqt: Tested peptide of cell surface protein integrin alpha (v) (TENQT; not fully specified),−
11,dkNls: Tested peptide of cell surface protein N-Cadherin (DKNLS; not fully specified),+
12,dtNrs: Tested peptide of cell surface protein erbB-2 (DTNRS; not fully specified),+
13,daNkt: Tested peptide of cell surface protein erbB-1 (DANKT; not fully specified),+
14,keNdt: Tested peptide of cell surface protein protein-tyrosine phosphatase kappa (KENDT; also: biotin label at one end),−
15,esNrt: Tested peptide of cell surface protein fgfr1 (ESNRT; not fully specified),−
16,spNhs: Tested peptide of cell surface protein CD44 (SPNHS; not fully specified),−
17,seNas: Tested peptide of cell surface protein integrin alpha 1 (SENAS; not fully specified),−
18,kNvtNrs: Tested peptide of cell surface protein integrin beta I (KNVTNRS; also: biotin label at one end),−
19,seNdt: Tested peptide of cell surface protein protein-tyrosine phosphatase PCP-2 (SENDT; not fully specified),−
20,vkNst: Tested peptide of cell surface protein E-Cadherin (VKNST; not fully specified),+
21,"heNct: Tested peptide of cell surface protein erbB-3 (HENCT; also: biotin label, end not given here)",−
22,pdNdt: Tested peptide of cell surface protein insulin-like gf receptor (PDNDT; also: biotin label at one end),−
23,"hkNqt: Tested peptide of cell surface protein ICAM 1 (HKNQT; also: biotin label, end not given here)",−
24,meNkt: Tested peptide of cell surface protein integrin alpha 3 (MENKT; also: biotin label at one end),+
25,leNht: Tested peptide of cell surface protein integrin alpha 3 (LENHT; also: biotin label at one end),−
26,diNss: Tested peptide of cell surface protein fgfr4 (DINSS; not fully specified),−
27,NhSeg: Tested peptide of cell surface protein CD44 (NHSEG; not fully specified),+

row,Substance,Prostate Cancer Serum Test Result
1,dkNst: Tested peptide of cell surface protein CD38 (DKNST; not fully specified),−
2,rcNgs: Tested peptide of cell surface protein integrin beta 5 (RCNGS; not fully specified),−
3,"qkNss: Tested peptide of cell surface protein integrin beta 6 (QKNSS; also: biotin label at one end, end not given here)",−
4,drNht: Tested peptide of cell surface protein CD46 (DRNHT; not fully specified),−
5,deNit: Tested peptide of cell surface protein tgfr beta type II (DENIT; not fully specified),+
6,"pgNrt: Tested peptide of cell surface protein CD82 (PGNRT; also: biotin label at one end, end not given here)",−
7,kaNtt: Tested peptide of cell surface protein integrin alpha (v) (KANTT; also: biotin label at one end),−
8,trNdt: Tested peptide of cell surface protein CD66 (TRNDT; not fully specified),−
9,rmNit: Tested peptide of cell surface protein integrin alpha 3 (RMNIT; not fully specified),−
10,nnNNss: Tested peptide of cell surface protein CD9 (NNNNSS; also: biotin label at one end),−
11,ekNgs: Tested peptide of cell surface protein fgfr2 (EKNGS; not fully specified),−
12,saNrs: Tested peptide of cell surface protein CD66 (SANRS; not fully specified),+
13,"ghNes: Tested peptide of cell surface protein protein-tyrosine phosphatase kappa (GHNES; also: biotin label, end not given here)",−
14,tkNgt: Tested peptide of cell surface protein desmoglein 1 (TKNGT; not fully specified),−
15,qrNit: Tested peptide of cell surface protein integrin alpha 1 (QRNIT; not fully specified),−
16,eeNns: Tested peptide of cell surface protein pdgfr alpha (EENNS; not fully specified),−
17,sdNst: Tested peptide of cell surface protein CD53 (SDNST; not fully specified),−
18,drNhs: Tested peptide of cell surface protein integrin alpha 2 (DRNHS; not fully specified),−
19,raNhs: Tested peptide of cell surface protein integrin alpha 6 (RANHS; not fully specified),−
20,drNgt: Tested peptide of cell surface protein CD44 (DRNGT; not fully specified),+
21,ekNdt: Tested peptide of cell surface protein integrin alpha (v) (EKNDT; not fully specified),−
22,pdNqt: Tested peptide of cell surface protein integrin beta 5 (PDNQT; also: biotin label at one end),−
23,kdNrt: Tested peptide of cell surface protein pdgfr beta (KDNRT; also: biotin label at one end),−
24,vgNks: Tested peptide of cell surface protein hepatocyte gfr (VGNKS; not fully specified),−
25,pdNct: Tested peptide of cell surface protein erbB-4 (PDNCT; also: biotin label at one end),−
26,kiNat: Tested peptide of cell surface protein desmoglein 2 (KINAT; also: biotin label at one end),−
27,knNht: Tested peptide of cell surface protein CD63 (KNNHT; also: biotin label at one end),−
